According to patent US8168592B2 (Amgen Inc., priority 2005, dated 2012):
Bridge positions count the residues as written; N and C are the ends. Square brackets hold non-standard residues; d marks the D form. Peptide text beside a SMILES is read from it. Oic = O=C(O)[C@@H]1C[C@@H]2CCCC[C@@H]2N1; hArg = N=C(N)NCCCC[C@H](N)C(=O)O; Cit = NC(=O)NCCC[C@H](N)C(=O)O

Biological target: T1, CGRP1 receptor (Homo sapiens, UniProt O60894+Q16602)
T1 construct: SK-N-MC cells express CRLR and RAMP1, which form CGRP1 receptor; endogenous in cells; host or cells: SK-N-MC human neuroblastoma cells
T1 sequence (Q16602 23-461): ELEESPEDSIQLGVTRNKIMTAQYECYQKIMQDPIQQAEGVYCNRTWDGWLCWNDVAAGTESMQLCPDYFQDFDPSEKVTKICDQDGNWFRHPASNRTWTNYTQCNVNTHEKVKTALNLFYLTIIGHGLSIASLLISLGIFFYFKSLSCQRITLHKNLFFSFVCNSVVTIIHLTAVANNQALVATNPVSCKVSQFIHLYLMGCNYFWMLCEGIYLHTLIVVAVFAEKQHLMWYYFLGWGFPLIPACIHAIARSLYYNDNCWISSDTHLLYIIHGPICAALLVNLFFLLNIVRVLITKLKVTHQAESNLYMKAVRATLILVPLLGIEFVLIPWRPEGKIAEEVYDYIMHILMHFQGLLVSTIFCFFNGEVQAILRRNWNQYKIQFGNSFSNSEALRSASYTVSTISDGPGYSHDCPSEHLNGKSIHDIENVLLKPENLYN
T1 sequence (O60894 27-148): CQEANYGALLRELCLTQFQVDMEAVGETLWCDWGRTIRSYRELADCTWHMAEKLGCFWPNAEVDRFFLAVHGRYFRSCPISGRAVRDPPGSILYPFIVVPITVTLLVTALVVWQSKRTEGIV
Test: in vitro CGRP1 receptor mediated cAMP assay in SK-N-MC cells
Type: cell-based
Conditions: IC50, Table 2A
Method: The in vitro cAMP assay employed a human neuroblastoma-derived cell line (SK-N-MC). SK-N-MC cells express CRLR and RAMP1, which form CGRP1 receptor. CGRP1 receptor is a G-protein coupled receptor linked to the stimulatory G-protein, Gs. […] Briefly, two days before the assay, the cells were plated in 96-well plates in growth medium. On the day of the assay cells were rinsed with PBS followed by the addition of 60 μl of plasma free medium for 15 minutes at room temperature. […] The medium was then removed and the cells were lysed with 100 μl lysis buffer for 30 minutes at 37° C. for 30 minutes. Using a Tropix ELISA kit (Applied Biosystems, Foster City, Calif.), a cAMP-AP conjugate was diluted (1:100) and added (30 μl) to each well of a 96-well ELISA plate. An aliquot of the lysis buffer from the cell plate was then added to the ELISA plate followed by an aliquot of the cAMP antibody. This mixture was incubated for 1 hour at room temperature with gentle shaking. The ELISA plate was then washed 6× with wash buffer followed by the additions of a substrate enhancer. This mixture was incubated for 30 minutes at room temperature and then read on a MicroBeta Jet or EnVision plate reader. The results were analyzed using Prism (GraphPad).

Row | SMILES | IC50 [nM]
1 | CC(=O)N[C@@H](Cc1c[nH]c2ccccc12)C(=O)N[C@H](C(=O)N[C@H]1CCC(=O)NCCCC[C@@H](C(=O)NCC(=O)N[C@@H](CC(C)C)C(=O)N[C@@H](CC(C)C)C(=O)N[C@@H](CO)C(=O)N[C@@H](CCCNC(N)=O)C(=O)N[C@@H](CO)C(=O)NCC(=O)NCC(=O)N[C@H](C(=O)N[C@H](C(=O)N[C@@H](CCCCNC(=N)N)C(=O)N[C@@H](CCCCN)C(=O)N[C@@H](CC(N)=O)C(=O)N[C@@H](Cc2ccccc2)C(=O)N[C@H](C(=O)N2CCC[C@H]2C(=O)N[C@H](C(=O)N[C@@H](CC(=O)O)C(=O)N[C@H](C(=O)NCC(=O)N2CCC[C@H]2C(=O)N[C@@H](Cc2ccccc2)C(=O)N[C@@H](C)C(=O)N[C@@H](Cc2ccccc2)C(N)=O)C(C)C)[C@@H](C)O)C(C)C)C(C)C)C(C)C)NC(=O)[C@H](CC(C)C)NC(=O)[C@H](CCCNC(=N)N)NC(=O)[C@H](Cc2c[nH]cn2)NC1=O)C(C)C [compound 663] (Ac-WVEHRLKGLLS[Cit]SGGVV[hArg]KNFVPTDVGPFAF-NH2; lactam 3-7) | 1.22 to 2.06

Same assay, conditions: Table 2A; read-out: IC50

Row | IC50 [nM] | SMILES
2 | > 1000 | CC(=O)N[C@H](C(=O)N[C@H](C(=O)N[C@H](C(=O)N[C@H](C(=O)N[C@@H](Cc1c[nH]cn1)C(=O)N[C@@H](CCCNC(N)=O)C(=O)N[C@@H](CC(C)C)C(=O)N[C@@H](C)C(=O)NCC(=O)N[C@@H](CC(C)C)C(=O)N[C@@H](CC(C)C)C(=O)N[C@@H](CO)C(=O)N[C@@H](CCCNC(N)=O)C(=O)N[C@@H](CO)C(=O)NCC(=O)NCC(=O)N[C@H](C(=O)N[C@H](C(=O)N[C@@H](CCCCNC(=N)N)C(=O)N[C@@H](CCCCN)C(=O)N[C@@H](CC(N)=O)C(=O)N[C@@H](Cc1ccccc1)C(=O)N[C@H](C(=O)N1CCC[C@H]1C(=O)N[C@H](C(=O)N[C@@H](CC(=O)O)C(=O)N[C@H](C(=O)NCC(=O)N1CCC[C@H]1C(=O)N[C@@H](Cc1ccccc1)C(=O)N[C@@H](C)C(N)=O)C(C)C)[C@@H](C)O)C(C)C)C(C)C)C(C)C)[C@@H](C)O)C(C)C)C(C)C)C(C)C [compound 654] (Ac-VVVTH[Cit]LAGLLS[Cit]SGGVV[hArg]KNFVPTDVGPFA-NH2)
3 | > 1000 | CC(=O)N[C@@H](Cc1c[nH]c2ccccc12)C(=O)N[C@H](C(=O)N[C@H](C(=O)N[C@@H](Cc1c[nH]cn1)C(=O)N[C@@H](CCCNC(N)=O)C(=O)N[C@@H](CC(C)C)C(=O)N[C@@H](C)C(=O)NCC(=O)N[C@@H](CC(C)C)C(=O)N[C@@H](CC(C)C)C(=O)N[C@@H](CO)C(=O)N[C@@H](CCCNC(N)=O)C(=O)N[C@@H](CO)C(=O)NCC(=O)NCC(=O)N[C@H](C(=O)N[C@H](C(=O)N[C@@H](CCCCNC(=N)N)C(=O)N[C@@H](CCCCN)C(=O)N[C@@H](CC(N)=O)C(=O)N[C@@H](Cc1ccccc1)C(=O)N[C@H](C(=O)N1CCC[C@H]1C(=O)N[C@H](C(=O)N[C@@H](CC(=O)O)C(=O)N[C@H](C(=O)NCC(=O)N1CCC[C@H]1C(=O)N[C@@H](Cc1ccccc1)C(N)=O)C(C)C)[C@@H](C)O)C(C)C)C(C)C)C(C)C)[C@@H](C)O)C(C)C [compound 655] (Ac-WVTH[Cit]LAGLLS[Cit]SGGVV[hArg]KNFVPTDVGPF-NH2)
4 | 13 | CC(=O)N[C@@H](CCCNC(N)=O)C(=O)N[C@@H](CC(C)C)C(=O)N[C@@H](C)C(=O)NCC(=O)N[C@@H](CC(C)C)C(=O)N[C@@H](CC(C)C)C(=O)N[C@@H](CO)C(=O)N[C@@H](CCCNC(N)=O)C(=O)N[C@@H](CO)C(=O)NCC(=O)NCC(=O)N[C@H](C(=O)N[C@H](C(=O)N[C@@H](CCCCNC(=N)N)C(=O)N[C@@H](CCCCN)C(=O)N[C@@H](CC(N)=O)C(=O)N[C@@H](Cc1ccccc1)C(=O)N[C@H](C(=O)N1CCC[C@H]1C(=O)N[C@H](C(=O)N[C@@H](CC(=O)O)C(=O)N[C@H](C(=O)NCC(=O)N1CCC[C@H]1C(=O)N[C@@H](Cc1ccccc1)C(=O)N[C@@H](C)C(=O)N[C@@H](Cc1ccccc1)C(N)=O)C(C)C)[C@@H](C)O)C(C)C)C(C)C)C(C)C [compound 657] (Ac-[Cit]LAGLLS[Cit]SGGVV[hArg]KNFVPTDVGPFAF-NH2)
5 | 3 | CC(=O)N[C@H](C(=O)N[C@H](C(=O)N[C@@H](Cc1c[nH]cn1)C(=O)N[C@@H](CCCNC(N)=O)C(=O)N[C@@H](CC(C)C)C(=O)N[C@@H](C)C(=O)NCC(=O)N[C@@H](CC(C)C)C(=O)N[C@@H](CC(C)C)C(=O)N[C@@H](CO)C(=O)N[C@@H](CCCNC(N)=O)C(=O)N[C@@H](CO)C(=O)NCC(=O)NCC(=O)N[C@H](C(=O)N[C@H](C(=O)N[C@@H](CCCCNC(=N)N)C(=O)N[C@@H](CCCCN)C(=O)N[C@@H](CC(N)=O)C(=O)N[C@@H](Cc1ccccc1)C(=O)N[C@H](C(=O)N1CCC[C@H]1C(=O)N[C@H](C(=O)N[C@@H](CC(=O)O)C(=O)N[C@H](C(=O)NCC(=O)N1[C@H](C(=O)N[C@@H](Cc2ccccc2)C(=O)N[C@@H](C)C(=O)N[C@@H](Cc2ccccc2)C(N)=O)C[C@@H]2CCCC[C@@H]21)C(C)C)[C@@H](C)O)C(C)C)C(C)C)C(C)C)[C@@H](C)O)C(C)C [compound 660] (Ac-VTH[Cit]LAGLLS[Cit]SGGVV[hArg]KNFVPTDVG[Oic]FAF-NH2)
6 | 2.29 to 2.95 | CC(=O)N[C@@H](Cc1c[nH]c2ccccc12)C(=O)N[C@H](C(=O)N[C@H](C(=O)N[C@@H](Cc1c[nH]cn1)C(=O)N[C@@H](CCCNC(N)=O)C(=O)N[C@@H](CC(C)C)C(=O)N[C@@H](C)C(=O)NCC(=O)N[C@@H](CC(C)C)C(=O)N[C@@H](CC(C)C)C(=O)N[C@@H](CO)C(=O)N[C@@H](CCCNC(N)=O)C(=O)N[C@@H](CO)C(=O)NCC(=O)NCC(=O)N[C@H](C(=O)N[C@H](C(=O)N[C@@H](Cc1ccc(NC(=N)N)cc1)C(=O)N[C@@H](CCCCN)C(=O)N[C@@H](CC(N)=O)C(=O)N[C@@H](Cc1ccccc1)C(=O)N[C@H](C(=O)N1CCC[C@H]1C(=O)N[C@H](C(=O)N[C@@H](CC(=O)O)C(=O)N[C@H](C(=O)NCC(=O)N1[C@H](C(=O)N[C@@H](Cc2ccccc2)C(=O)N[C@@H](C)C(=O)N[C@@H](Cc2ccccc2)C(N)=O)C[C@@H]2CCCC[C@@H]21)C(C)C)[C@@H](C)O)C(C)C)C(C)C)C(C)C)[C@@H](C)O)C(C)C [compound 664]

Second part, the molecule before the results:

Row | SMILES | IC50 [nM]
7 | CC(=O)N[C@@H](Cc1c[nH]c2ccccc12)C(=O)N[C@H](C(=O)N[C@H](C(=O)N[C@@H](Cc1cnc[nH]1)C(=O)N[C@@H](CCCNC(N)=O)C(=O)N[C@@H](CC(C)C)C(=O)N[C@@H](C)C(=O)NCC(=O)N[C@@H](CC(C)C)C(=O)N[C@@H](CC(C)C)C(=O)N[C@@H](CO)C(=O)N[C@@H](CCCNC(N)=O)C(=O)N[C@@H](CO)C(=O)NCC(=O)NCC(=O)N[C@H](C(=O)N[C@H](C(=O)N[C@@H](CCCCNC(=N)N)C(=O)N[C@@H](CCCCN)C(=O)N[C@@H](CC(N)=O)C(=O)N[C@@H](Cc1ccccc1)C(=O)N[C@H](C(=O)N1CCC[C@H]1C(=O)N[C@H](C(=O)N[C@@H](CC(=O)O)C(=O)N[C@H](C(=O)NCC(=O)N1CCC[C@H]1C(=O)N[C@@H](Cc1ccccc1)C(=O)N[C@@H](C)C(=O)N[C@@H](Cc1ccccc1)C(N)=O)C(C)C)[C@@H](C)O)C(C)C)C(C)C)C(C)C)[C@@H](C)O)C(C)C [compound 653] | 3.22
8 | CC(=O)N[C@@H](Cc1c[nH]c2ccccc12)C(=O)N[C@H](C(=O)N[C@H](C(=O)N[C@@H](Cc1c[nH]cn1)C(=O)N[C@@H](CCCNC(N)=O)C(=O)N[C@@H](CC(C)C)C(=O)N[C@@H](C)C(=O)NCC(=O)N[C@@H](CC(C)C)C(=O)N[C@@H](CC(C)C)C(=O)N[C@@H](CO)C(=O)N[C@@H](CCCNC(N)=O)C(=O)N[C@@H](CO)C(=O)NCC(=O)NCC(=O)N[C@H](C(=O)N[C@H](C(=O)N[C@@H](CCCCNC(=N)N)C(=O)N[C@@H](CCCCN)C(=O)N[C@@H](CC(N)=O)C(=O)N[C@@H](Cc1ccccc1)C(=O)N[C@H](C(=O)N1CCC[C@H]1C(=O)N[C@H](C(=O)N[C@@H](CC(=O)O)C(=O)N[C@H](C(=O)NCC(=O)N1CCC[C@H]1C(N)=O)C(C)C)[C@@H](C)O)C(C)C)C(C)C)C(C)C)[C@@H](C)O)C(C)C [compound 656] (Ac-WVTH[Cit]LAGLLS[Cit]SGGVV[hArg]KNFVPTDVGP-NH2) | > 1000
9 | CC(=O)N[C@@H](Cc1c[nH]c2ccccc12)C(=O)N[C@H](C(=O)N[C@H](C(=O)N[C@@H](Cc1c[nH]cn1)C(=O)N[C@@H](CCCNC(N)=O)C(=O)N[C@@H](CC(C)C)C(=O)N[C@@H](C)C(=O)NCC(=O)N[C@@H](CC(C)C)C(=O)N[C@@H](CC(C)C)C(=O)N[C@@H](CO)C(=O)N[C@@H](CCCNC(N)=O)C(=O)N[C@@H](CO)C(=O)NCC(=O)NCC(=O)N[C@H](C(=O)N[C@H](C(=O)N[C@@H](CCCCNC(=N)N)C(=O)N[C@@H](CCCCN)C(=O)N[C@@H](CC(N)=O)C(=O)N[C@@H](Cc1ccccc1)C(=O)N[C@H](C(=O)N1CCC[C@H]1C(=O)N[C@H](C(=O)N[C@@H](CC(=O)O)C(=O)N[C@H](C(=O)NCC(=O)N1[C@H](C(=O)N[C@@H](Cc2ccccc2)C(=O)N[C@@H](C)C(N)=O)C[C@@H]2CCCC[C@@H]21)C(C)C)[C@@H](C)O)C(C)C)C(C)C)C(C)C)[C@@H](C)O)C(C)C [compound 659] (Ac-WVTH[Cit]LAGLLS[Cit]SGGVV[hArg]KNFVPTDVG[Oic]FA-NH2) | > 1000
